# Source: patent US8541670B2, “Compositions and methods for inhibiting tumor cell growth” (priority 2007, dated 2013)
# Where no end group is shown, it is not given here.
# Legend:
# [1] = target: T1, PKAc (Homo sapiens, UniProt P17612); assay: Independent kinase assays on catalytic activity of PKAc; format: biochemical
# T1 construct: purchased Upstate Biotechnology
# Source text: Of particular interest with regard to inhibitory activity toward AKT was peptide […](SEQ ID NO:60) which flanked the Thr-197 phosphorylation site of PKAc. […] Furthermore, the inhibitory effect of ZaTa peptide was compared with an adjacent peptide ([…] SEQ ID NO:59), a peptide that overlaps with the 11 N-terminal amino acid residues of the ZaTa peptide and carries the Thr-197 phosphorylation site. In this assay, the level of incorporation of −^32 P into Ser-21 GSK-3[…] substrate peptide was used as the measure of AKT1 in vitro catalytic activity.
# For non-radioactive kinase assays, typically 25 ng of active AKT1 or PKAc (Upstate Biotechnology) was used in a kinase assay reaction buffer (20 mM MOPS, pH 7.2, 25 mM […]-glycerophosphate, 5 mM EGTA, 1 mM Na3VO4, 1 mM dithiothreitol, 75 mM MgCl2, and 0.5 mM ATP) in the presence of either 1 μL of Ser-9 GSK-3 GST fusion protein (Cell Signaling), or recombinant DARPP-32 (10 μg). […] A 5 μL aliquot of the reaction was transferred to phosphocellulose paper, washed for 30 minutes with dH2O, and CPM of samples read in scintillation counter.
# [2] = test system: PKA, PKC, CDKs; assay: In vivo phosphorylation of substrates of PKA, PKC, CDKs (consensus-site phospho-specific antibodies); set-up: species or system mouse; conditions: after in vivo injection
# Description: To analyze in vivo selectivity, ZaTa was injected into one hemisphere and DMSO in the other hemisphere, as above, and a series of western blot analyses was preformed with phospho-specific antibodies which recognize a phosphorylated substrate or each one of the kinases that ZaTa inhibited at higher concentrations in vitro. […] Given the high functional and structural homology between p70S6K and AKT, the in vivo inhibitory effect of ZaTa on p70S6K was contemplated. Furthermore, the in vivo effect of ZaTa on the phosphorylation levels of substrates for PKA, PKC, CDKs using phospho-specific antibodies recognizing the phosphorylated consensus sites of these kinases was analyzed. In contrast to the consistent decrease in phosphorylation of AKT substrates, significant changes in the phosphorylation level of PKA, PKC and CDKs substrates was not observed after in vivo injection of ZaTa. […]
sequence,measurement,setting,value
AKRVKGRTWTLCGTPEY [ZaTa],inhibitory effect on catalytic activity of PKAc,[1],did not exhibit any inhibitory effect
same,"changes in phosphorylation level of PKA, PKC and CDKs substrates",[2],not observed
